From patent US11208412B2 (DAEGU-GYEONGBUK MEDICAL INNOVATION FOUNDATION, priority 2017, dated 2021)
Like-named read-outs stand apart in the source and are kept apart here.

Experiments:
Assay in all cases: Kinase selectivity, DiscoverX scanMAX Kinase assay panel (% control)
Format in all cases: binding
[1] = biological target: T1, kinases of the scanMAX Kinase assay panel (Homo sapiens, UniProt O75676); conditions: 1 uM in DMSO
T1 construct: purchased DiscoverX Co. (contract measurement) scanMAX Kinase assay panel
Method in brief: (§1)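 Compounds were tested at 1 uM (in DMSO) against each panel kinase. % control was calculated as (compound − positive control)/(negative control − positive control)×100, where the positive control gives 0% and DMSO gives 100%. Activity toward a kinase was called at % control <35%.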

[2] = biological target: T2, kinases of the scanMAX Kinase assay panel (Homo sapiens, UniProt P10721, T670I/V559D); conditions: KIT(V559D, T670I); 1 uM
T2 construct: purchased DiscoverX Co. (contract measurement) scanMAX Kinase assay panel
Method in brief: as §1

[3] = biological target: T3, kinases of the scanMAX Kinase assay panel (Homo sapiens, UniProt P43403); conditions: kinase ZAP70; 1 uM in DMSO
T3 construct: purchased DiscoverX Co. (contract measurement) scanMAX Kinase assay panel
T3 sequence (P43403 1-619): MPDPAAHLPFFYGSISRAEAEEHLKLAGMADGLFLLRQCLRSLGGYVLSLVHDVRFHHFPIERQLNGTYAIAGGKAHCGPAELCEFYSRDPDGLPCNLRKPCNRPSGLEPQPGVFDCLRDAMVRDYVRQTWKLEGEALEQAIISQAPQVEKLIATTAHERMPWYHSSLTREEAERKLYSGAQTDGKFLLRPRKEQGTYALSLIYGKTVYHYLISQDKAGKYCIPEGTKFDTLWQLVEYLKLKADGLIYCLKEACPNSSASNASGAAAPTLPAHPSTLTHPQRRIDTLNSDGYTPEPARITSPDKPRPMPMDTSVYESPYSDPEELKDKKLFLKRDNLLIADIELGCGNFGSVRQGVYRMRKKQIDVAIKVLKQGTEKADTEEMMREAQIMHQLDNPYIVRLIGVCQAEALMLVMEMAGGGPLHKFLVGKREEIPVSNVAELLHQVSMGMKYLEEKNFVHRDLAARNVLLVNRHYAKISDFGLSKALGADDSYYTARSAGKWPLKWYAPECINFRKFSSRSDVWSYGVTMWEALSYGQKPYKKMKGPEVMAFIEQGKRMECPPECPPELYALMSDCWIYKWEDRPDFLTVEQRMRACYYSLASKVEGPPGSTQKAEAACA
Method in brief: as §1

[4] = biological target: T4, kinases of the scanMAX Kinase assay panel (Homo sapiens, UniProt Q8NFD2); conditions: ANKK1; 1 uM
T4 construct: purchased DiscoverX Co. (contract measurement) scanMAX Kinase assay panel
T4 sequence (Q8NFD2 1-765): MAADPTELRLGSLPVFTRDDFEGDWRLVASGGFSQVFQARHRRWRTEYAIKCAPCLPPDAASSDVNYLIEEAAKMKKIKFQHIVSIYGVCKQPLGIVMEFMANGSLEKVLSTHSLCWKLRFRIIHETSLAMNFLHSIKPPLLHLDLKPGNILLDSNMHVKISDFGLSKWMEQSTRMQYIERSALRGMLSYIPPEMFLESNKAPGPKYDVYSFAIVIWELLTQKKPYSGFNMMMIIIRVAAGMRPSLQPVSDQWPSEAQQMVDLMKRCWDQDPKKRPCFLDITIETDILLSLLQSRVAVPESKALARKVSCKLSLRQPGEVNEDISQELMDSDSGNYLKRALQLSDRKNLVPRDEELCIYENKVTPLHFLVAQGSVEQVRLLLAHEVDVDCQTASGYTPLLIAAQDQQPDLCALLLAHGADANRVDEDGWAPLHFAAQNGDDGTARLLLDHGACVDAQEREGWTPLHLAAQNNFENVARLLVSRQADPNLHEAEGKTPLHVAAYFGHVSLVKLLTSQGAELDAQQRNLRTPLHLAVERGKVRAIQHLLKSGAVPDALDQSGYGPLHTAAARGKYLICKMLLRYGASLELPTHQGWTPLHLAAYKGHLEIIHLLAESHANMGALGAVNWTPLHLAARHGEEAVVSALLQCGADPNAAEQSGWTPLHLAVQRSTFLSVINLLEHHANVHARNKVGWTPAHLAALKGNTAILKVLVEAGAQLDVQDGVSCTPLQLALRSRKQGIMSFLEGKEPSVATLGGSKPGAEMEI
Method in brief: as §1

[5] = kinase RPS6KA4(Kin.Dom.1-N-terminal), read-out: % control, RPS6KA4(Kin.Dom.1-N-terminal)
[6] = kinase RPS6KA4(Kin.Dom.2-C-terminal), read-out: % control, RPS6KA4(Kin.Dom.2-C-terminal)

T2 sequence (P10721 26-976 V559D/T670I): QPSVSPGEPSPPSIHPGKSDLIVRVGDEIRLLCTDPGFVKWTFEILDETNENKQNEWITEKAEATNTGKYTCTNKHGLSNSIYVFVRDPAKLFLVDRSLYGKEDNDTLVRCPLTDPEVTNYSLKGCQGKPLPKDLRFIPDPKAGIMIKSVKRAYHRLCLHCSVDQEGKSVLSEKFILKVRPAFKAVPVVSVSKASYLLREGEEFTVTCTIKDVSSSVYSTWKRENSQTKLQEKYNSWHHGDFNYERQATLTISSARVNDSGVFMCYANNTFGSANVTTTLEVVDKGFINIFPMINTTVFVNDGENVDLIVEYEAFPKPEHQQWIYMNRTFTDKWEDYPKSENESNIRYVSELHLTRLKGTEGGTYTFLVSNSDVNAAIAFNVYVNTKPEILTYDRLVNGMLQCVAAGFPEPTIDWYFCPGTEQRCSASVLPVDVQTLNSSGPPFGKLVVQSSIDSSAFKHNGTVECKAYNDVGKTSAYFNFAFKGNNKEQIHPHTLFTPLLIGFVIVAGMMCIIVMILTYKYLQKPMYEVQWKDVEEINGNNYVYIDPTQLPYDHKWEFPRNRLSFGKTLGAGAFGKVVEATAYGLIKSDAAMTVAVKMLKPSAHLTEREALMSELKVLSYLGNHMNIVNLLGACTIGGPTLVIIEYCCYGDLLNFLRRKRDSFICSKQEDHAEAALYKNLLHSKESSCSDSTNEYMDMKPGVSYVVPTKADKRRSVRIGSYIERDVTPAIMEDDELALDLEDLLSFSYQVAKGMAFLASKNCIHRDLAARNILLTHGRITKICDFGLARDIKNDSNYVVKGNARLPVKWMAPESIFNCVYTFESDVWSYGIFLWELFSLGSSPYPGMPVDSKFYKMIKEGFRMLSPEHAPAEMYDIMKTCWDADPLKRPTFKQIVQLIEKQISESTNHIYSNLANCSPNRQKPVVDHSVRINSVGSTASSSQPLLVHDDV
T1 sequence (O75676 whole entry): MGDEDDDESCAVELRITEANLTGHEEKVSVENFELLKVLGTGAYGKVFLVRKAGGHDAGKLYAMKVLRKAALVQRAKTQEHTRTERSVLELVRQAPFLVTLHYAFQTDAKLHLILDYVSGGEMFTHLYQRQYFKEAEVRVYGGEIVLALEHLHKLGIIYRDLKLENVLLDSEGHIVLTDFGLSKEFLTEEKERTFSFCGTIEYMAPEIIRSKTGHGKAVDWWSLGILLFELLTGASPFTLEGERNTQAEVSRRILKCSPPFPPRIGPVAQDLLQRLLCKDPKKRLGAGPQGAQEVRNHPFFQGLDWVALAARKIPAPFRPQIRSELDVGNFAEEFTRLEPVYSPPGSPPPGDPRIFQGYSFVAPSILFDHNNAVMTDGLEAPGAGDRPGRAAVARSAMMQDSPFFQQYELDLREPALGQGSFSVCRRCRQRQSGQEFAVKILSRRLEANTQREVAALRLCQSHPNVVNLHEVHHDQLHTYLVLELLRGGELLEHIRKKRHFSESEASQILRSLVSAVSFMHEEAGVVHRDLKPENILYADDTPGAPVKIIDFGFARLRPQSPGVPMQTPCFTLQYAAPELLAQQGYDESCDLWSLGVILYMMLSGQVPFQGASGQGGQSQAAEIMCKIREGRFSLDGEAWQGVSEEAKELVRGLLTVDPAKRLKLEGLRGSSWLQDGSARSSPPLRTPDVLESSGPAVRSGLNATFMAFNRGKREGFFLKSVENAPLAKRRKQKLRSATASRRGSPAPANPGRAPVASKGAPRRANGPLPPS

SMILES | remaining binding at 1 µM [1, 5] [%] | remaining binding at 1 µM [1, 6] [%] | remaining binding at 1 µM [2] [%] | remaining binding at 1 µM [3] [%] | remaining binding at 1 µM [4] [%]
CNc1nc(Nc2ccc(C(=O)N3CCOCC3)cc2OC)nc2[nH]cc(C#N)c12 [Example 1, 2-((2-methoxy-4-(morpholine-4-carbonyl)phenyl)amino)-4-(methylamino)-7H-pyrrolo[2,3-d]pyrimidine-5-carbonitrile] | 92 | 0.2 | 73 | 35 | 82
CC1(Nc2nc(Nc3cnn([C@H]4CCN(C5COC5)C[C@@H]4F)c3Cl)nc3[nH]cc(C#N)c23)CC1 [Example 52, 2-((5-chloro-1-((3S,4S)-3-fluoro-1-(oxetane-3-yl)piperidine-4-yl)-1H-pyrazole-4-yl)amino)((1-methylcyclopropyl)amino)-7H-pyrrolo[2,3-d]pyrimidine-5-carbonitrile] | 68 | 2.2 | 0.4 | 2.2 | 15
CCNc1nc(Nc2ccc(C(=O)N3CCC(N4CCOCC4)CC3)cc2OC)nc2[nH]cc(C(F)(F)F)c12 [Example 104, (4-((4-(ethylamino)-5-(trifluoromethyl)-7H-pyrrolo[2,3-d]pyrimidine-2-yl)amino)-3-methoxyphenyl)(4-morpholinopiperidine-1-yl)methanone] | 100 | 18 | 87 | 100 | 95
